According to patent US10683297B2 (Sunshine Lake Pharma Co., Ltd., priority 2017, dated 2020):
pIC50: −log10 of the molar value.

Columns and labels:
[1] = Compound stability in rat liver microsomes; assay type: in vitro ADME; settings: for CLint scaled at 5 μM: liver microsomes, pH 7.4, in vivo CLint extrapolated from rat liver microsome incubation; for half-life at 5 μM: read-out: Rat T1/2
Procedure, shortened: (§1)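 Compounds (5 μM) incubated at 37 °C with human or rat liver microsomes (0.5 mg protein/mL) and 1.0 mM NADPH in 100 mM phosphate buffer pH 7.4, 0.05% DMSO, in duplicate. Sampled 0–60 min, quantified by LC/MS/MS as % of time zero; CLint extrapolated.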

[2] = biological target: T1, JAK1 (h) (Homo sapiens, UniProt P23458); experiment: JAK1 (h) kinase assay; assay type: biochemical; settings: [γ-33P-ATP] 10 μM or KM values; 40 minutes at room temperature
T1 construct: purchased Millipore UK Ltd (assays performed there as a service)
Procedure, shortened: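 Radiometric filter-binding assay: human JAK1 incubated 40 min at room temperature in 20 mM Tris/HCl pH 7.5, 0.2 mM EDTA, 500 μM peptide substrate, 10 mM Mg acetate, with [γ-33P]ATP at 10 μM or KM. Reaction stopped with phosphoric acid; P30 filtermat scintillation counting.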

[3] = Compound stability in human liver microsomes; assay type: in vitro ADME; settings: for half-life at 5 μM: human liver microsomes 0.5 mg protein/mL, compound 5 μM, NADPH 1.0 mM, pH 7.4, 37° C., read-out: Human T1/2; for CLint scaled at 5 μM: liver microsomes, pH 7.4, in vivo CLint extrapolated from human liver microsome incubation
Procedure, shortened: as §1

[4] = rat liver microsomes 0.5 mg protein/mL, compound 5 μM, NADPH 1.0 mM, pH 7.4, 37° C.

T1 sequence (P23458 whole entry): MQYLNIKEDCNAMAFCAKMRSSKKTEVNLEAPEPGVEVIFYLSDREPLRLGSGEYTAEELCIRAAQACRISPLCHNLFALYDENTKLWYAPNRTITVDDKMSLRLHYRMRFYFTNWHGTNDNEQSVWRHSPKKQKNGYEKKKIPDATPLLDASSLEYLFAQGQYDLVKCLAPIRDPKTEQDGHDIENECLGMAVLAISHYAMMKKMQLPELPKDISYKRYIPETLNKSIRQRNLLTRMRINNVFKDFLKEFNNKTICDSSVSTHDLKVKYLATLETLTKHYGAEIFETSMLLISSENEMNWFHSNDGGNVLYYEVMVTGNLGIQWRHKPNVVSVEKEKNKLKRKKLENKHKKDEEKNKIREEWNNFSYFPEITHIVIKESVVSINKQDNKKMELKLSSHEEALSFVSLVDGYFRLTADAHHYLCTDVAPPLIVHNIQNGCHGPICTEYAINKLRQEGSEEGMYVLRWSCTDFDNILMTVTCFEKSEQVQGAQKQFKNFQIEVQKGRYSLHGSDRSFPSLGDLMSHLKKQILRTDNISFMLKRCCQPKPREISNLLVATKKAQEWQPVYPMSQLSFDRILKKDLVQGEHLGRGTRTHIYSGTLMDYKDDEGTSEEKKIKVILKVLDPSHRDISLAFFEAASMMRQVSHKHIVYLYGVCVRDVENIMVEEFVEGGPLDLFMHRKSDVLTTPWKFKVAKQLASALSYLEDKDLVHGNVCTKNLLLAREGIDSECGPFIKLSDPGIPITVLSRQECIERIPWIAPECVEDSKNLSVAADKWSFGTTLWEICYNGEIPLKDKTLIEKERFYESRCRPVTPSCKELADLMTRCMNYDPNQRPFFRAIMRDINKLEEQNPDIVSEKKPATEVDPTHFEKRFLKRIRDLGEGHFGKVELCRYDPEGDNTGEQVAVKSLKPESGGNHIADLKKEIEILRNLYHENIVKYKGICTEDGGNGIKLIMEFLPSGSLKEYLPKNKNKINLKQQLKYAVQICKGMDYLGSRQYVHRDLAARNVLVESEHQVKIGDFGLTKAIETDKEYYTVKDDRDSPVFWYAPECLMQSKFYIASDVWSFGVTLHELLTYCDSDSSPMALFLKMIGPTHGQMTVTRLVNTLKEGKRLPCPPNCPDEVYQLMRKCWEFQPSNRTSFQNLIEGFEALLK

| SMILES | CLint scaled at 5 μM [1] [mL/min/kg] | half-life at 5 μM [1, 4] [min] | pIC50 [2] | half-life at 5 μM [3] [min] | CLint scaled at 5 μM [3] [mL/min/kg] | Rat T1/2 [1, 4] |
| --- | --- | --- | --- | --- | --- | --- |
| CC(C)(O)Cc1nc2cc(Nc3ncc(Cl)c(NC4CCN(c5ccc(C#N)cn5)CC4)n3)ccn2n1 [Example 78, 6-(4-((5-chloro-2-((2-(2-hydroxy-2-methylpropyl)-[1,2,4]triazolo[1,5-a]pyridin-7-yl)amino)pyrimidin-4-yl)amino)piperidin-1-yl)nicotinonitrile] | 157 | 15.8 | 9.00 | 35.3 | 49.3 |  |
| CC(C)(O)Cc1nnc2cc(Nc3ncc(Cl)c(NC4CCN(c5ccc(C#N)nn5)CC4)n3)ccn12 [Example 75, 6-(4-((5-chloro-2-((3-(2-hydroxy-2-methylpropyl)-[1,2,4]triazolo[4,3-a]pyridin-7-yl)amino)pyrimidin-4-yl)amino)piperidin-1-yl)pyridazine-3-carbonitrile] |  | > 60 | 9.00 | > 60 |  |  |
| CCC1CN(c2ccc(C#N)nn2)CCC1Nc1nc(Nc2ccn3c(C)cnc3c2)ncc1Cl (stereo not drawn) [Example 3, 6-(4-((5-chloro-2-((3-methylimidazo[1,2-a]pyridin-7-yl)amino)pyrimidin-4-yl)amino)-3-ethylpiperidin-1-yl)pyridazine-3-carbonitrile] |  |  | 9.22 | 56.3 | 30.9 | ∞ |
| N#Cc1ccc(N2CCC(Nc3nc(Nc4ccn5c(C(F)F)nnc5c4)ncc3Cl)CC2)nc1 [Example 30, 6-(4-((5-chloro-2-((3-(difluoromethyl)-[1,2,4]triazolo[4,3-a]pyridin-7-yl)amino)pyrimidin-4-yl)amino)piperidin-1-yl)nicotinonitrile] | 30.8 | 80.5 | 9.05 | 126 | 13.8 |  |
| CC(C)(O)Cc1nc2ccc(Nc3ncc(Cl)c(NC4CCN(c5ccc(C#N)nn5)CC4)n3)cn2n1 [Example 79, 6-(4-((5-chloro-2-((2-(2-hydroxy-2-methylpropyl)-[1,2,4]triazolo[1,5-a]pyridin-6-yl)amino)pyrimidin-4-yl)amino)piperidin-1-yl)pyridazine-3-carbonitrile] | 5.1 | 486 | 9.00 | 196 | 8.9 |  |
| CC(O)Cc1nc2cc(Nc3ncc(Cl)c(NC4CCN(c5ccc(C#N)nn5)CC4)n3)ccn2n1 (stereo not drawn) [Example 56, 6-(4-((5-chloro-2-((2-(2-hydroxypropyl)-[1,2,4]triazolo[1,5-a]pyridin-7-yl)amino)pyrimidin-4-yl)amino)piperidin-1-yl)pyridazine-3-carbonitrile] | 50.9 | 48.8 | 9.30 | 47.7 | 36.5 |  |
| CC(C)(O)Cc1cn2cc(Nc3ncc(Cl)c(NC4CCN(c5ccc(C#N)cn5)CC4)n3)ccc2n1 [Example 73, 6-(4-((5-chloro-2-((2-(2-hydroxy-2-methylpropyl)imidazo[1,2-a]pyridin-6-yl)amino)pyrimidin-4-yl)amino)piperidin-1-yl)nicotinonitrile] | 214 | 11.6 | 9.00 | 42 | 41.3 |  |
| CCC1CN(c2ccc(C#N)cn2)CCC1Nc1nc(Nc2ccn3c(C)cnc3c2)ncc1Cl (stereo not drawn) [Example 2, 6-(4-((5-chloro-2-((3-methylimidazo[1,2-a]pyridin-7-yl)amino)pyrimidin-4-yl)amino)-3-ethylpiperidin-1-yl)nicotinonitrile] | 52.4 | 47.4 | 9.00 | 36.2 | 48.1 |  |
| CC(C)(O)Cc1nc2cc(Nc3ncc(Cl)c(NC4CCN(c5ccc(C#N)nn5)CC4)n3)ccn2n1 [Example 77, 6-(4-((5-chloro-2-((2-(2-hydroxy-2-methylpropyl)-[1,2,4]triazolo[1,5-a]pyridin-7-yl)amino)pyrimidin-4-yl)amino)piperidin-1-yl)pyridazine-3-carbonitrile] | 38.2 | 65 | 9.15 | 257 | 6.8 |  |
| CC(C)(O)Cc1nnc2cc(Nc3ncc(Cl)c(NC4CCN(c5ccc(C#N)cn5)CC4)n3)ccn12 [Example 74, 6-(4-((5-chloro-2-((3-(2-hydroxy-2-methylpropyl)-[1,2,4]triazolo[4,3-a]pyridin-7-yl)amino)pyrimidin-4-yl)amino)piperidin-1-yl)nicotinonitrile] |  | > 60 | 9.15 | > 60 |  |  |
| CC(C)(O)c1nc2cc(Nc3ncc(Cl)c(NC4CCN(c5ccc(C#N)cn5)CC4)n3)ccn2n1 [Example 39, 6-(4-((5-chloro-2-((2-(2-hydroxypropan-2-yl)-[1,2,4]triazolo[1,5-a]pyridin-7-yl)amino)pyrimidin-4-yl)amino)piperidin-1-yl)nicotinonitrile] | 10.1 | 246 | 9.22 | 121 | 14.4 |  |
| CC(C)(O)c1nc2cc(Nc3ncc(Cl)c(NC4CCN(c5ccc(C#N)nn5)CC4)n3)ccn2n1 [Example 55, 6-(4-((5-chloro-2-((2-(2-hydroxypropan-2-yl)-[1,2,4]triazolo[1,5-a]pyridin-7-yl)amino)pyrimidin-4-yl)amino)piperidin-1-yl)pyridazine-3-carbonitrile] | 7.3 | 340 | 9.05 | 1370 | 1.3 |  |
| CC(C)(O)Cc1nc2ccc(Nc3ncc(Cl)c(NC4CCN(c5ccc(C#N)cn5)CC4)n3)cn2n1 [Example 67, 6-(4-((5-chloro-2-((2-(2-hydroxy-2-methylpropyl)-[1,2,4]triazolo[1,5-a]pyridin-6-yl)amino)pyrimidin-4-yl)amino)piperidin-1-yl)nicotinonitrile] | 80.6 | 30.8 | 9.22 | 127 | 13.7 |  |
| Cc1nc2cc(Nc3ncc(Cl)c(NC4CCN(c5ccc(C#N)cn5)CC4)n3)ccn2n1 [Example 32, 6-(4-((5-chloro-2-((2-methyl-[1,2,4]triazolo[1,5-a]pyridin-7-yl)amino)pyrimidin-4-yl)amino)piperidin-1-yl)nicotinonitrile] |  |  | 9.30 |  |  |  |

Now from value to compound:

| CLint scaled at 5 μM [1] [mL/min/kg] | half-life at 5 μM [1, 4] [min] | pIC50 [2] | half-life at 5 μM [3] [min] | CLint scaled at 5 μM [3] [mL/min/kg] | Rat T1/2 [1, 4] | SMILES |
| --- | --- | --- | --- | --- | --- | --- |
| 528 | 4.71 | 9.30 | 10.3 | 168 |  | CC(C)(O)c1cn2ccc(Nc3ncc(Cl)c(NC4CCN(c5ccc(C#N)cn5)CC4)n3)cc2n1 [Example 70, 6-(4-((5-chloro-2-((2-(2-hydroxypropan-2-yl)imidazo[1,2-a]pyridin-7-yl)amino)pyrimidin-4-yl)amino)piperidin-1-yl)nicotinonitrile] |
| 732 | 3.4 | 9.40 | 15.6 | 112 |  | N#Cc1ccc(N2CCC(Nc3nc(Nc4ccc5c(c4)nnn5CC4CC4)ncc3Cl)CC2)nc1 [Example 60, 6-(4-((5-chloro-2-((1-(cyclopropylmethyl)-1H-benzo[d][1,2,3]triazol-5-yl)amino)pyrimidin-4-yl)amino)piperidin-1-yl)nicotinonitrile] |
| 130 | 19 | 9.52 | 10.6 | 164 |  | CC(C)(O)c1cnc2cc(Nc3ncc(Cl)c(NC4CCN(c5ccc(C#N)cn5)CC4)n3)ccn12 [Example 68, 6-(4-((5-chloro-2-((3-(2-hydroxypropan-2-yl)imidazo[1,2-a]pyridin-7-yl)amino)pyrimidin-4-yl)amino)piperidin-1-yl)nicotinonitrile] |
| 89.4 | 27.8 | > 9.52 | 108 | 16.1 |  | Cn1nnc2cc(Nc3ncc(Cl)c(NC4CCN(c5ccc(C#N)nn5)CC4)n3)ccc21 [Example 47, 6-(4-((5-chloro-2-((l-methyl-1H-benzo[d][1,2,3]triazol-5-yl)amino)pyrimidin-4-yl)amino)piperidin-1-yl)pyridazine-3-carbonitrile] |
| 13.4 | 186 | 9.40 | 117 | 14.9 |  | Cc1cnc2cc(Nc3ncc(Cl)c(NC4CCN(c5ccc(C#N)nn5)CC4)n3)ccn12 [Example 12, 6-(4-((5-chloro-2-((3-methylimidazo[1,2-a]pyridin-7-yl)amino)pyrimidin-4-yl)amino)piperidin-1-yl)pyridazine-3-carbonitrile] |
| 44.7 | 55.6 | > 9.52 | 361 | 4.8 |  | CC(C)(O)c1nnc2cc(Nc3ncc(Cl)c(NC4CCN(c5ccc(C#N)cn5)CC4)n3)ccn12 [Example 40] |
| 86.2 | 28.8 | > 9.52 | 128 | 13.6 |  | CC(O)Cn1cnc2cc(Nc3ncc(Cl)c(NC4CCN(c5ccc(C#N)cn5)CC4)n3)ccc21 (stereo not drawn) [Example 61, 6-(4-((5-chloro-2-((1-(2-hydroxypropyl)-1H-benzo[d]imidazol-5-yl)amino)pyrimidin-4-yl)amino)piperidin-1-yl)nicotinonitrile] |
